What was measured:
[1] = biological target: T1, Gabija complex (GajA and GajB) (Bacillus cereus, UniProt J8H9C1+J8HQ06); test: inhibition of DNA cleavage, agarose gel; type: biochemical; conditions: 1 mM MgCl2, pH 9, 37 °C, 5 min
T1 construct: full-length GajA (1-578, Strep-tag II) co-expressed with full-length GajB (1-493, 6xHis) in E. coli BL21(DE3); hetero-octamer 4:4

[2] = biological target: the molecule itself; test: SEC-MALS; Superdex 200 10/300 Increase, samples injected at 1 mg/ml in Buffer B (10 mM Tris-HCl pH 7.5, 300 mM NaCl, 2 mM DTT), 0.5 ml/min; GajA, GajB and the co-purified Gabija complex

T1 sequence (J8HQ06 1-493, one chain of several): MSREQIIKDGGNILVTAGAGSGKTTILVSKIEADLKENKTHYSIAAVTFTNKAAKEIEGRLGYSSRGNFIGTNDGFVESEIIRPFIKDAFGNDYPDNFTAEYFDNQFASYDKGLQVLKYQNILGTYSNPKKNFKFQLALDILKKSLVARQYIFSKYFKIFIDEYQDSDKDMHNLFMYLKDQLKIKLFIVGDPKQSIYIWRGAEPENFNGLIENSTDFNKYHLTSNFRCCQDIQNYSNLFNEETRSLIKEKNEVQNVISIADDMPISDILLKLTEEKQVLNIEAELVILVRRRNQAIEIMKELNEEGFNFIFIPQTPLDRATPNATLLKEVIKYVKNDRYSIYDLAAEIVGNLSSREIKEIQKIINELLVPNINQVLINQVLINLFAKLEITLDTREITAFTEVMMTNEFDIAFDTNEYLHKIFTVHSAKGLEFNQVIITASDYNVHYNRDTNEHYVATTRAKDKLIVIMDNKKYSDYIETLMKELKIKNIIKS

| Molecule | inhibition of DNA cleavage, agarose gel ([1]; supercoiled pUC19-15 plasmid) | other results |
| --- | --- | --- |
| Nc1ncnc2c1ncn2[C@@H]1O[C@H](COP(=O)(O)OP(=O)(O)NP(=O)(O)O)[C@@H](O)[C@H]1O [AMP-PNP] |  | inhibition of DNA cleavage, agarose gel ([1]; non-hydrolysable ATP analogue, DNA substrate not given): cleavage activity of the Gabija complex is also inhibited by AMP-PNP |
| Nc1ncnc2c1ncn2[C@@H]1O[C@H](COP(=O)(O)OP(=O)(O)O)[C@@H](O)[C@H]1O [ADP] | significantly inhibited by different NTP, dNTP, ADP, but not AMP |  |
| Nc1nc2c(ncn2[C@@H]2O[C@H](COP(=O)(O)OP(=O)(O)OP(=O)(O)O)[C@@H](O)[C@H]2O)c(=O)[nH]1 [GTP] | significantly inhibited with the increased concentration of ATP and GTP |  |
| GajA (enzyme, Bacillus cereus VD045, UniProt J8H9C1 1-578, looked up, OLD family nuclease with ATPase domain (1-351) and Toprim domain (352-578); The methods describe only the co-expression and purification of the complex; Cloned into PET-52b; also called GajA1; GajA2; source: E. coli BL21 (DE3), purified (Strep-tactin Sepharose, Superdex 200); co-expressed with GajB for the Gabija complex) MKFSNITIKNFRNFEKVNINLDNKNVIFGMNDIGKTNFLYALRFLLDKEIRKFGFNKSDYHKHDTSKKIEIILTLDLSNYEKDEDTKKLISVVKGARTSANADVFYIALESKYDDKELYGNIILKWGSELDNLIDIPGRGNINALDNVFKVIYINPLVDLDKLFAQNKKYIFEESQGNESDEGILNNIKSLTDQVNQQIGEMTIIKGFQQEITSEYRSLKKEEVSIELKSEMAIKGFFSDIIPYIKKDGDSNYYPTSGDGRRKMLSYSIYNYLAKKKYEDKIVIYLIEEPEISLHRSMQIALSKQLFEQSTYKYFFLSTHSPELLYEMDNTRLIRVHSTEKVVCSSHMYNVEEAYGSVKKKLNKALSSALFAERVLLIEGPSEKILFEKVLDEVEPEYELNGGFLLEVGGTYFNHYVCTLNDLGITHIIKTDNDLKSKKGKKGVYELLGLNRCLNLLGRENLDEITIDIPEDIKGKKKKERLNERKKEIFKQYKNEVGEFLGERIYLSEIDLENDLYSAIGESMKRIFENEDPVHYLQKSKLFNMVELVNNLSTKDCFDVFEHEKFACLKELVGSDRG |  | stoichiometry N [2]: 4 |

Source: paper PMC10822852, “Structural and biochemical insights into the mechanism of the Gabija bacterial immunity system” (Nature Communications, 2024)
